One data set concerns cells. Conditions: high levels of 4μ8C; cited from earlier work.
The next data set deals with XBP1s-luc 293 LUC. In words: cellular PD assay, XBP1s-LUC reporter (Example 903). Conditions: read-out: XBP1s-luc 293 LUC (IC50). The class given is cell-based. Summed up:
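A luciferase fusion, in frame and expressed only when the XBP1 transcript is spliced, served as the readout of cellular IRE1α activity in an XBP1-Luc reporter line.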

Structures can show the parent of a compound that is named as a salt. Where two headings read alike, the source gives them in different places.

Turning to `Cc1cc(=O)oc2c(C=O)c(O)ccc12` [Example 4μ8C], the toxicity in cells entry in the data set with cells was “no measurable toxicity”.
As for `Cc1ccc2c(NS(=O)(=O)Cc3ccccc3)cccc2c1Oc1ncccc1-c1ccnc(N[C@@H]2CNC[C@H](F)C2)n1` [Example 148, N-(5-((3-(2-(((3S,5R)-5-Fluoropiperidin-3-yl)amino)pyrimidin-4-yl)pyridin-2-yl)oxy)-6-methylnaphthalen-1-yl)-1-phenylmethanesulfonamide], in the data set on XBP1s-luc 293 LUC (Table 1), the concentration for half-maximal inhibition (IC50) was found to be 211 nM.
Turning to `CCS(=O)(=O)Nc1cccc2c(Oc3ncccc3-c3ccnc(N[C@H]4CCCNC4)n3)c(C)ccc12` [Example 103, (S)—N-(6-Methyl-5-((3-(2-(piperidin-3-ylamino)pyrimidin-4-yl)pyridin-2-yl)oxy)naphthalen-1-yl)ethanesulfonamide], the IC50 in the data set with XBP1s-luc 293 LUC (Table 1) was 255 nM.
On to `CCCS(=O)(=O)Nc1cccc2c(Oc3ncccc3-c3ccnc(N[C@H]4CCCNC4)n3)c(F)ccc12` [Example 305, (S)—N-(6-Fluoro-5-((3-(2-(piperidin-3-ylamino)pyrimidin-4-yl)pyridin-2-yl)oxy)naphthalen-1-yl)propane-1-sulfonamide], for which the IC50 in the data set on XBP1s-luc 293 LUC (Table 1) was 481 nM.
In the case of `Cc1ccc2c(NS(=O)(=O)CCC(C)(F)F)c(F)ccc2c1Oc1ncccc1-c1ccnc(N[C@@H]2CNC[C@@H](F)C2)n1` (single isomer, unassigned) [Example 498, hydrochloride], the IC50 with XBP1s-luc 293 LUC (Table 2) turned out to be 33 nM.
For the compound `Cc1ccc2c(N3C(=O)CCC3C)cccc2c1Oc1ncccc1-c1ccnc(N[C@H]2CCCNC2)n1` (mixture of isomers) [Example 237, 5-Methyl-1-(6-methyl-5-((3-(2-((S)-piperidin-3-ylamino)pyrimidin-4-yl)pyridin-2-yl)oxy)naphthalen-1-yl)pyrrolidin-2-one], the half-maximal inhibitory concentration (IC50) in the data set on XBP1s-luc 293 LUC (Table 1) was determined as 472 nM.
On to `Cc1ccc2c(NC(=O)CC(C)(C)C)cccc2c1Oc1ncccc1-c1ccnc(N[C@H]2CCCNC2)n1` [Example 198, (S)-3,3-Dimethyl-N-(6-methyl-5-((3-(2-(piperidin-3-ylamino)pyrimidin-4-yl)pyridin-2-yl)oxy)naphthalen-1-yl)butanamide], for which, in the data set with XBP1s-luc 293 LUC (Table 1), the IC50 amounted to 161 nM.
Take `Cc1ccc2c(NCC(F)CF)cccc2c1Oc1ncccc1-c1ccnc(N[C@H]2CCCNC2)n1` (mixture of isomers) [Example 460, 4-[2-[[5-(2,3-Difluoropropylamino)-2-methyl-1-naphthyl]oxy]-3-pyridyl]-N-[(3S)-3-piperidyl]pyrimidin-2-amine hydrochloride]: the IC50 with XBP1s-luc 293 LUC (Table 2) was determined as 92 nM.
With `CCCS(=O)(=O)Nc1cccc2c(Oc3ncccc3-c3ccnc(N[C@@H]4CNCC[C@H]4C)n3)c(C)ccc12` (single isomer, unassigned) [Example 169], the half-maximal inhibitory concentration (IC50) in the data set with XBP1s-luc 293 LUC (Table 1) came out at 121 nM.
For `Cc1ccc2c(NS(=O)(=O)N(C)Cc3ccccc3)c(F)ccc2c1Oc1ncccc1-c1ccnc(N[C@H]2CCCNC2)n1` [Example 410, 4-[2-[[5-[[Benzyl(methyl)sulfamoyl]amino]-6-fluoro-2-methyl-1-naphthyl]oxy]-3-pyridyl]-2-[[(3S)-3-piperidyl]amino]pyrimidine hydrochloride], the half-inhibitory concentration (IC50) in the data set on XBP1s-luc 293 LUC (Table 2) was 87 nM.
Turning to `Cc1ccc2c(NC(=O)C3CCC3)cccc2c1Oc1ncccc1-c1ccnc(N[C@H]2CCCNC2)n1` [Example 131, (S)—N-(6-Methyl-5-((3-(2-(piperidin-3-ylamino)pyrimidin-4-yl)pyridin-2-yl)oxy)naphthalen-1-yl)cyclobutanecarboxamide], the IC50 with XBP1s-luc 293 LUC (Table 1) is 153 nM.
Regarding `Cc1ccc2c(NS(=O)(=O)CC(C)C)c(F)ccc2c1Oc1ncccc1-c1ccnc(N[C@@H]2CNC[C@H](C)C2)n1` [Example 369, N-(2-Fluoro-6-methyl-5-((3-(2-(((3S,5R)-5-methylpiperidin-3-yl)amino)pyrimidin-4-yl)pyridin-2-yl)oxy)naphthalen-1-yl)-2-methylpropane-1-sulfonamide], the concentration for half-maximal inhibition (IC50) with XBP1s-luc 293 LUC (Table 1) came to 19.4 nM.
With `Cc1ccc2c(NCC(=O)C3CC3)cccc2c1Oc1ncccc1-c1ccnc(N[C@H]2CCCNC2)n1` [Example 459, (S)-1-Cyclopropyl-2-((6-methyl-5-((3-(2-(piperidin-3-ylamino)pyrimidin-4-yl)pyridin-2-yl)oxy)naphthalen-1-yl)amino)ethanone hydrochloride], the IC50 in the data set on XBP1s-luc 293 LUC (Table 2) was 312 nM.
On to `CCCCNc1cccc2c(Oc3ncccc3-c3ccnc(N[C@H]4CCCNC4)n3)c(C)ccc12` [Example 197, (S)-4-(2-((5-(Butylamino)-2-methylnaphthalen-1-yl)oxy)pyridin-3-yl)-N-(piperidin-3-yl)pyrimidin-2-amine], for which the IC50 with XBP1s-luc 293 LUC (Table 1) is 228 nM.
In the case of `CCCS(=O)(=O)Nc1c(C)ccc2c(Oc3ncccc3-c3ccnc(N[C@H]4CCCNC4)n3)c(C)ccc12` [Example 285, (S)—N-(2,6-Dimethyl-5-((3-(2-(piperidin-3-ylamino)pyrimidin-4-yl)pyridin-2-yl)oxy)Naphthalen-1-yl)propane-1-sulfonamide], in the data set on XBP1s-luc 293 LUC (Table 1), the concentration for half-maximal inhibition (IC50) is 71 nM.
On to `Cc1ccc2c(NC(=O)C(C)(C)C#N)cccc2c1Oc1ncccc1-c1ccnc(N[C@H]2CCCNC2)n1` [Example 363, (S)-2-Cyano-2-methyl-N-(6-methyl-5-((3-(2-(piperidin-3-ylamino)pyrimidin-4-yl)pyridin-2-yl)oxy)naphthalen-1-yl)propanamide], for which, in the data set with XBP1s-luc 293 LUC (Table 1), the IC50 worked out at 408 nM.
On to `Cc1nc(CS(=O)(=O)Nc2c(F)ccc3c(Oc4ncccc4-c4ccnc(N[C@H]5CCCNC5)n4)c(C)ccc23)cs1` [Example 411, (S)—N-(2-Fluoro-6-methyl-5-((3-(2-(piperidin-3-ylamino)pyrimidin-4-yl)pyridin-2-yl)oxy)naphthalen-1-yl)-1-(2-methylthiazol-4-yl)methanesulfonamide hydrochloride], for which the IC50 with XBP1s-luc 293 LUC (Table 2) amounted to 12 nM.
Regarding `Cc1ccc2c(NC(=O)C3(C)CC3)cccc2c1Oc1ncccc1-c1ccnc(N[C@H]2CCCNC2)n1` [Example 154, (S)-1-Methyl-N-(6-methyl-5-((3-(2-(piperidin-3-ylamino)pyrimidin-4-yl)pyridin-2-yl)oxy)naphthalen-1-yl)cyclopropane-1-carboxamide], the 50% inhibitory concentration (IC50) in the data set on XBP1s-luc 293 LUC (Table 1) came to 239 nM.
As for `Cc1ccc2c(NS(=O)(=O)Cc3ccccc3CO)cccc2c1Oc1ncccc1-c1ccnc(N[C@H]2CCCNC2)n1` [Example 166, (S)-1-(2-(Hydroxymethyl)phenyl)-N-(6-methyl-5-((3-(2-(piperidin-3-ylamino)pyrimidin-4-yl)pyridin-2-yl)oxy)naphthalen-1-yl)methanesulfonamide], the IC50 in the data set on XBP1s-luc 293 LUC (Table 1) was found to be 118 nM.
As to `Cc1ccc2c(NC(=O)c3cccc(C(C)(C)C#N)c3)cccc2c1Oc1ncccc1-c1ccnc(N[C@H]2CCCNC2)n1` [Example 101, (S)-3-(2-Cyanopropan-2-yl)-N-(6-methyl-5-((3-(2-(piperidin-3-ylamino)pyrimidin-4-yl)pyridin-2-yl)oxy)naphthalen-1-yl)benzamide], in the data set with XBP1s-luc 293 LUC (Table 1), the half-inhibitory concentration (IC50) was 102 nM.
`Cc1ccc2c(NC(=O)[C@@H]3CC3C3CC3)cccc2c1Oc1ncccc1-c1ccnc(N[C@H]2CCCNC2)n1` (single isomer, unassigned) [Example 274]: the half-inhibitory concentration (IC50) in the data set on XBP1s-luc 293 LUC (Table 1) stood at 100 nM.
For `Cc1ccc2c(NS(=O)(=O)Cc3cscn3)c(F)ccc2c1Oc1ncccc1-c1ccnc(N[C@H]2CCCNC2)n1` [Example 402, (S)—N-(2-Fluoro-6-methyl-5-((3-(2-(piperidin-3-ylamino)pyrimidin-4-yl)pyridin-2-yl)oxy)naphthalen-1-yl)-1-(thiazol-4-yl)methanesulfonamide hydrochloride], the half-inhibitory concentration (IC50) in the data set with XBP1s-luc 293 LUC (Table 2) was determined as 51 nM.
Turning to `CCCS(=O)(=O)Nc1cccc2c(Oc3ncccc3-c3ccnc(N[C@H]4CCCNC4)n3)c(C)ccc12` [Example 104, (S)—N-(6-Methyl-5-(3-(2-(piperidin-3-ylamino)pyrimidin-4-yl)pyridin-2-yloxy)naphthalen-1-yl)propane-1-sulfonamide hydrochloride], the IC50 in the data set with XBP1s-luc 293 LUC (Table 1) is 131 nM.
On to `Cc1ccc2c(NS(=O)(=O)CCC(F)(F)F)c(F)ccc2c1Oc1ncccc1-c1ccnc(N[C@@H]2CNC[C@@H](F)C2)n1` (single isomer, unassigned) [Example 432, hydrochloride], for which the IC50 with XBP1s-luc 293 LUC (Table 2) was 28 nM.
As for `Cc1ccc2c(NS(=O)(=O)CC3CC(F)(F)C3)c(F)ccc2c1Oc1ncccc1-c1ccnc(N[C@H]2CCCNC2)n1` [Example 433, (S)-1-(3,3-Difluorocyclobutyl)-N-(2-fluoro-6-methyl-5-((3-(2-(piperidin-3-ylamino)pyrimidin-4-yl)pyridin-2-yl)oxy)naphthalen-1-yl)methanesulfonamide], the IC50 with XBP1s-luc 293 LUC (Table 2) was found to be 76 nM.
Regarding `CCCS(=O)(=O)Nc1cccc2c(Oc3ncccc3-c3ccnc(N[C@@H]4CNCC[C@H]4F)n3)c(C)ccc12` (single isomer, unassigned) [Example 206], in the data set on XBP1s-luc 293 LUC (Table 1), the half-inhibitory concentration (IC50) was determined as 487 nM.

As usually defined, the IC50 is the concentration at which inhibition is half-maximal.
